Measurements from patent publication US20210002231A1 (Centre National de la Recherche Scientifique, priority 2018, published 2021).
Read-outs that look alike come from different tables or passages of the source. Residues, ends and D or L forms follow the SMILES beside them.

Key:
[1] = target: T1, human DOPr (Homo sapiens, UniProt P41143); assay: biochemical; assay type: binding
T1 construct: expressed in transfected cells; HEK293-Glo20F cells (cAMP)

[2] = system: C57BL/6N mice; assay: Tail immersion test after acute sc. administration; assay type: in vivo
Procedure: Animal experiments were performed on adult male C57BL/6N male mice (25-30 g weight; Janvier labs, France). Animals were housed in groups of three to five per cage and kept under a 12 h/12 h light/dark cycle at 21±1° C. with ad libitum access to food and water. Experiments were performed during the light-on phase of the cycle. Mice were habituated to the testing room and equipment before starting behavioral experiments. Control and treated group assignment as well as pain response measurements were performed in a blinded manner. Every animal was used only once. 1.11. Drug administration All drugs were dissolved in physiological saline (0.9%) and administered subcutaneously (sc.) at 10 mL/kg (volume/body weight). […] Assessment of thermal nociception The nociceptive sensitivity to thermal stimulation was determined in mice using the warm-water tail immersion tests as previously described [12; 49]. In the tail immersion test, C57BN/6N mice were restrained in a grid pocket and their tail was immersed in a thermostated water bath. […] For analgesic tolerance evaluation, nociceptive latencies were measured on day 1 and 8 according to the acute effect protocol. For the assessment of hyperalgesia, basal nociceptive latencies were measured every day, 30 min before drug or saline injection. Responses are expressed as latency times (in sec) of tail withdrawal from the hot water.

[3] = target: T2, human NOPr (Homo sapiens, UniProt P41146); assay: Radioligand competition binding with [3H]-nociceptin
T2 construct: expressed in transfected cells
T2 sequence (P41146 whole entry): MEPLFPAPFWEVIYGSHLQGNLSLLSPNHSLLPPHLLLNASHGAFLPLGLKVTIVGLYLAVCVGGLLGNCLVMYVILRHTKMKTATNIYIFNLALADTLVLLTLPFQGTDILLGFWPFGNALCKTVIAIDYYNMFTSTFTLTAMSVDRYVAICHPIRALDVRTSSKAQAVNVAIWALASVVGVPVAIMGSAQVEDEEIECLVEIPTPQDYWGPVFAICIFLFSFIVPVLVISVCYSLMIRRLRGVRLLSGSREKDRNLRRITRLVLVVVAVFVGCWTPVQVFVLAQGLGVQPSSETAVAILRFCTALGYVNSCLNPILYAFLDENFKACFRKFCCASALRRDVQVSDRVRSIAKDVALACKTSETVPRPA

[4] = target: human MOPr (Homo sapiens, UniProt P35372); assay: BRET1 β-arrestin-2 recruitment assay; assay type: cell-based; parameters: expressed in transfected cells; host or cells: HEK293 cells stably expressing eYFP-β-arrestin-2, transiently transfected with the Rluc8-MOP plasmid; conditions: for Emax: read-out: MOPr (β-arrestin-2) Emax;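 as to Emax: Emax relative to maximal DAMGO-induced BRET as 100%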;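 as to MOPr (β-arrestin-2) Emax: Emax relative to maximal DAMGO-induced BRET as 100%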
Sequence of human MOPr (P35372 whole entry): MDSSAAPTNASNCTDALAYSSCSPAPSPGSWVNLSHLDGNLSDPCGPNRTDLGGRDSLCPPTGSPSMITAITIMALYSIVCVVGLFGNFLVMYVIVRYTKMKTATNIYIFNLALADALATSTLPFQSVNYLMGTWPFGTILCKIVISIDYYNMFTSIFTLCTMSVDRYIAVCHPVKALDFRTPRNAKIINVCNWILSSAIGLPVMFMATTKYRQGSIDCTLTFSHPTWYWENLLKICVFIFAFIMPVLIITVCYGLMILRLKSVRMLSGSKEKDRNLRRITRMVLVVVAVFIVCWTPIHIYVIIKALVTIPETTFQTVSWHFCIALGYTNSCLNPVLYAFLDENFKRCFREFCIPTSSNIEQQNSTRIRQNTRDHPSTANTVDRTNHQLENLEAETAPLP
Method in brief: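 HEK293 cells stably expressing eYFP-β-arrestin-2 were transfected two days before with Rluc8-tagged MOP receptor. BRET was read at 37 °C with 5 μM coelenterazine H, 5 min after agonist addition.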

[5] = target: T1, human DOPr; assay: Glo-sensor cAMP assay; assay type: cell-based
Procedure: Stimulation by endogenous RF-amide peptides or test compounds for [^35S]-GTPγS binding to membranes from CHO cells expressing human NPFF1R or NPFF2R, were examined as reported. 1.6. Glo-Sensor cAMP Assay cAMP accumulation assay was essentially done as described with the following modifications: HEK293 cells stably expressing cAMP Glosensor-20F were used, with or without additional stable expression of each individual opioid receptor or NPFF1R. The cAMP responses were measured in presence of D-luciferin (1 mM). All peptides and test compounds were incubated in the presence of IBMX for 15 min before inducing cAMP production by forskolin. IBMX and forskolin concentrations were optimized for each receptor cell line: NPFF1R responses were recorded in presence of 0.1 mM IBMX and 0.4 μM forskolin, NPFF2R responses with 0.5 mM IBMX and 0.3 μM forskolin, MOPr responses with 0.5 mM IBMX and 0.125 μM forskolin, DOPr responses with 0.1 mM IBMX and 0.125 μM forskolin; KOPr and NOPr with 0.5 mM IBMX and 1.5 μM forskolin.

[6] = target: T3, human KOPr (Homo sapiens, UniProt P41145); assay: biochemical; assay type: binding; conditions: [3H]-diprenorphine
T3 construct: expressed in transfected cells; HEK293-Glo20F cells (cAMP)
T3 sequence (P41145 whole entry): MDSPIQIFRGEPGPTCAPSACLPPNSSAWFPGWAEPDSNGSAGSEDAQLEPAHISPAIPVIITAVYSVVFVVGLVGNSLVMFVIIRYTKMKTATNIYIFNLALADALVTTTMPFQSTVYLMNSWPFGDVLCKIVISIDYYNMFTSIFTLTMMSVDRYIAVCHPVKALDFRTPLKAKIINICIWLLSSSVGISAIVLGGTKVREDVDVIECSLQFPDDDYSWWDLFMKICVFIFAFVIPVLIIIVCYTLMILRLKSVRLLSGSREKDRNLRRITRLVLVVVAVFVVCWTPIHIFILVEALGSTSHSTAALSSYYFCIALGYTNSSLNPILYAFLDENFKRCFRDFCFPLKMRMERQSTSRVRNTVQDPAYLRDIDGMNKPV

[7] = target: T2, human NOPr; assay: Glo-sensor cAMP assay; assay type: cell-based
Procedure: Stimulation by endogenous RF-amide peptides or test compounds for [^35S]-GTPγS binding to membranes from CHO cells expressing human NPFF1R or NPFF2R, were examined as reported. 1.6. Glo-Sensor cAMP Assay cAMP accumulation assay was essentially done as described with the following modifications: HEK293 cells stably expressing cAMP Glosensor-20F were used, with or without additional stable expression of each individual opioid receptor or NPFF1R. The cAMP responses were measured in presence of D-luciferin (1 mM).

[8] = target: T4, GPR54 (Homo sapiens, UniProt Q969F8); assay: Radioligand competition binding with [125I]-Kp-10
T4 construct: expressed in transfected cells; host or cells: CHO cells, membranes
T4 sequence (Q969F8 whole entry): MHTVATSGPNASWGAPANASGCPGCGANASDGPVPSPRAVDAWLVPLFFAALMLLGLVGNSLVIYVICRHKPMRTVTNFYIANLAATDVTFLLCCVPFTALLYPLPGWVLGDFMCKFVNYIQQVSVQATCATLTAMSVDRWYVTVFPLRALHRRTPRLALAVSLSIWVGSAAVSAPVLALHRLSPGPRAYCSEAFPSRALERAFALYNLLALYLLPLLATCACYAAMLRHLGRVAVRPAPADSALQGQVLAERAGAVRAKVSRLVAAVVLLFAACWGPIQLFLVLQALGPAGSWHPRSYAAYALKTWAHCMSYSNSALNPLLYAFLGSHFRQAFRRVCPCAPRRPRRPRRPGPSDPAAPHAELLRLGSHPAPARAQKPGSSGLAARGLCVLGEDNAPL

[9] = target: T5, GPR103 (Homo sapiens, UniProt Q96P65); assay: Radioligand competition binding with [125I]-43RFa
T5 construct: expressed in transfected cells; host or cells: CHO cells (gift from M. Parmentier, IRIBHM, Brussels), membranes
T5 sequence (Q96P65 1-431): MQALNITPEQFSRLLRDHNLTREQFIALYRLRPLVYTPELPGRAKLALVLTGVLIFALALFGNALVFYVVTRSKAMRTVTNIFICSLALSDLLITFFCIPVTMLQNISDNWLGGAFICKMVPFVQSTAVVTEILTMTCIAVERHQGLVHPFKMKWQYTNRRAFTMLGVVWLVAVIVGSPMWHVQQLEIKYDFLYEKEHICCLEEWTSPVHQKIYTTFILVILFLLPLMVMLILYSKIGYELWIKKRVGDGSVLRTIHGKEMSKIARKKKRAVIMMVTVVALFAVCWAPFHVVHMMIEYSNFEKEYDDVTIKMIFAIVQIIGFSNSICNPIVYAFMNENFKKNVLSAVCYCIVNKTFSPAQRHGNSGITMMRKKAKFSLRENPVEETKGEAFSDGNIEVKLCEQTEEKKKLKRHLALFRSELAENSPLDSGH

[10] = target: human NPFF1R (Homo sapiens, UniProt Q9GZQ6); assay: Radioligand competition binding with [125I]-1-DMe-NPFF; parameters: expressed in transfected cells; HEK293-Glo20F cells (cAMP)
Sequence of human NPFF1R (Q9GZQ6 whole entry): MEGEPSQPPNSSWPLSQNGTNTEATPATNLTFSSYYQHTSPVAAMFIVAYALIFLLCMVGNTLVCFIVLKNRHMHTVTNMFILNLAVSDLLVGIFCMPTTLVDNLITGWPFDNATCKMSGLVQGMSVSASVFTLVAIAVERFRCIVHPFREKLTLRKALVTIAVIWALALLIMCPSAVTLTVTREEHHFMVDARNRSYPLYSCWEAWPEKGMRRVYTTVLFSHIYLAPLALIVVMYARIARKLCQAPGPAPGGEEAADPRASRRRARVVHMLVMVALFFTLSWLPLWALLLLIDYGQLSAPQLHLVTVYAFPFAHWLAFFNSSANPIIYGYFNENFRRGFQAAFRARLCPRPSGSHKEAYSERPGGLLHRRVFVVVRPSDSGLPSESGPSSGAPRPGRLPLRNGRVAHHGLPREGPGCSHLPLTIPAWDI

[11] = Table 3a, read-out: MOPr (β-arrestin-2) EC50
[12] = [125I]-Kp-10, read-out: Ki ± SEM GPR54
[13] = [125I]-43RFa, read-out: Ki ± SEM GPR103

T1 sequence (P41143 whole entry): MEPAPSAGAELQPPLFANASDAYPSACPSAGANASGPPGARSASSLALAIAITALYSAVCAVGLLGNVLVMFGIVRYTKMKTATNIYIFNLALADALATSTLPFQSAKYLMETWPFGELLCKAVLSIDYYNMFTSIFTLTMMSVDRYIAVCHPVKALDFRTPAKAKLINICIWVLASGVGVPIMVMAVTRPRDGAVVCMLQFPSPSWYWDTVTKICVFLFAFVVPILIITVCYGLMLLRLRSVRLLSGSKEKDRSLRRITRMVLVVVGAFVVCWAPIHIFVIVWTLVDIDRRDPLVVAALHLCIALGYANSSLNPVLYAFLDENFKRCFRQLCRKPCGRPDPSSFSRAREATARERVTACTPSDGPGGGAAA

Compound	Ki [1]	potency in inducing antinociception compared to KGOP01 [2]	Ki [3]	EC50 [4, 11]	β-arrestin-2 recruitment ([4]; in words)	Emax [4]	EC50 [5]	Emax [5]	Ki [6]	Emax [7]	Kb [7]	Ki [8]	Ki [9]	EC50 [7]	Kb ([7]; read-out: pA2, antagonist activity at the NOPr (converted))	Ki [8, 12]	Ki [9, 13]	EC50 [4]	β-arrestin-2 recruitment [4]	Ki [10]
Cc1cc(O)cc(C)c1C[C@H](N)C(=O)N[C@H](CCCNC(=N)N)C(=O)N[C@H]1Cc2ccccc2CN(CCC(=O)N[C@@H](CCCNC(=N)N)C(=O)N[C@@H](Cc2ccccc2)C(N)=O)C1=O [KGFF03, H-Dmt-D-Arg-Aba-β-Ala-Arg-Phe-NH2] (HELM PEPTIDE1{[Cc1cc(O)cc(C)c1C[C@H](N)C(=O)[*:2]].[dR].[O=C1[C@@H](N[*:1])Cc2ccccc2CN1CCC(=O)[*:2]].R.F.[am]}$$$$V2.0)	9.1 ± 0.7 nM	equipotent	289 ± 3 nM	33.9 ± 8.8 nM	partial agonism	41 ± 11%	0.34 nM	89 ± 6%	108 ± 28 nM	15 ± 2%	5010 nM	4370 nM	> 10000 nM	–	–	–	–	–	–	–
Cc1cc(O)cc(C)c1C[C@H](N)C(=O)N[C@H](CCCNC(=N)N)C(=O)N[C@H]1Cc2ccccc2CN(CCC(=O)N[C@@H](CCCN2CCC(Cc3ccccc3)CC2)C(=O)N[C@@H](Cc2ccccc2)C(N)=O)C1=O [KGFF09, H-Dmt-D-Arg-Aba-β-Ala-Bpa-Phe-NH2]	186 ± 77 nM	4.5 fold less potent	209 ± 2 nM	56.4 ± 26.5 nM	partial agonism	42 ± 2%	0.78 nM	90 ± 3%	–	7 ± 3%	–	–	–	> 10000 nM	1150 nM	2000 nM	1200 nM	–	–	–
Cc1cc(O)cc(C)c1C[C@H](N)C(=O)N[C@H](CCCNC(=N)N)C(=O)N[C@H]1Cc2ccccc2CN(CCC(N)=O)C1=O [KGOP01, reference compound]	5.1 ± 0.5 nM	–	> 10000 nM	–	–	103 ± 9%	0.16 ± 0.01 nM	91 ± 2%	37.3 ± 9.6 nM	–	–	–	–	–	–	> 10000 nM	> 10000 nM	1.6 ± 0.1 nM	full response	4600 nM
